Results as given in ChEMBL document CHEMBL3507680, “University of Dundee, Gates Library screen for HepG2 cell viability”.

Experiment: Human HepG2 cell viability assay in 384 well format
Type: toxicity, cell-based
Design: dose 125 nL, time 70.5 hour; concentration not given beside the values
Details: HepG2 cells, read-out: Inhibition

Question: For `Cc1ccc(C(=O)N2C[C@@H](OCc3cccnc3)[C@H]3OCCC[C@H]32)o1`, which cytotoxicity at 70.5 h is on record?
Answer: 3.45%

Question: For `COc1cccc2cc(CNC(C)(C)C(=O)N3CCC(O)CC3)oc12`, which cytotoxicity at 70.5 h is on record?
Answer: 14.1%

Question: Which cytotoxicity at 70.5 h does the source give for `CC[C@@H](C)[C@H](NC(=O)NC1CCS(=O)(=O)C1)C(=O)NCc1ccncc1` (some centres undefined) here?
Answer: 10.2%

Question: For `COC(=O)[C@]12CNC[C@H]1CN(Cc1nc(C)c[nH]1)C2`, which cytotoxicity at 70.5 h is on record?
Answer: 8.04%

Question: Which cytotoxicity at 70.5 h does the source give for `Cc1ccc(CN2CCC3(CCCN3C(=O)C(C)C)CC2)o1` here?
Answer: 5%

Question: With `O=C(c1cnco1)N1C[C@@H]2CC[C@H](Oc3ccccc3F)[C@@H]2C1` as the compound, how does the cytotoxicity at 70.5 h read?
Answer: 40.3%

Question: For `COCCN1CCN(Cc2ccc(Cl)cc2)[C@H]2CS(=O)(=O)C[C@H]21`, which cytotoxicity at 70.5 h is on record?
Answer: 0.00609%

Question: For `COC1CCN(C(=O)C2CC(=O)N(c3ccccc3Br)C2)CC1` (centres undefined), which cytotoxicity at 70.5 h is on record?
Answer: -8.26%

Question: With `CCCn1nc2c(cc1=O)CN(CC(=O)Nc1ccncc1)CC2` as the compound, how does the cytotoxicity at 70.5 h read?
Answer: -17.2%

Question: For `Cc1cc(C)c(CNC(=O)NCc2ccc3c(c2)CCC3)c(=O)[nH]1`, which cytotoxicity at 70.5 h is on record?
Answer: -10.5%

Question: Which cytotoxicity at 70.5 h does the source give for `Cc1cc(C)n(CC2CN(Cc3noc(C)n3)CCO2)n1` (centres undefined) here?
Answer: 10.1%

Question: For `COCCC1COC2(CCN(C(C)=O)CC2)C1` (centres undefined), which cytotoxicity at 70.5 h is on record?
Answer: -5.06%

Question: With `COCCN1CC2(CCCN(c3ncnc4[nH]cnc34)C2)CCC1=O` (centres undefined) as the compound, how does the cytotoxicity at 70.5 h read?
Answer: -1.89%

Question: With `CC(C)N1CCC(c2nccnc2Nc2cnccn2)CC1` as the compound, how does the cytotoxicity at 70.5 h read?
Answer: 17.9%

Question: With `CC(C)NC(=O)CN(C)C(=O)c1c(Cl)c2ccccc2n1C` as the compound, how does the cytotoxicity at 70.5 h read?
Answer: -0.0324%

Question: For `CCC(C(=O)N(C)Cc1cc(C2CC2)[nH]n1)n1cccn1` (centres undefined), which cytotoxicity at 70.5 h is on record?
Answer: -5.95%

Question: With `O=C(c1cc(C2CCCCN2CCO)n[nH]1)N1CCOCC1` (centres undefined) as the compound, how does the cytotoxicity at 70.5 h read?
Answer: -9.24%

Question: Which cytotoxicity at 70.5 h does the source give for `c1ccc(Cc2noc(CN3CCCC(Cn4cncn4)C3)n2)cc1` (centres undefined) here?
Answer: -14.5%

Question: Which cytotoxicity at 70.5 h does the source give for `CS(=O)(=O)NC[C@H]1Cn2c(-c3ccccc3)cnc2CO1` here?
Answer: -7.36%

Question: For `Cc1nc([C@H]2C[C@@H]3CCN(Cc4scnc4C)C[C@H]3O2)no1`, which cytotoxicity at 70.5 h is on record?
Answer: -5.9%

Question: With `O=S(=O)(NCCSc1nncn1C1CC1)c1ccccc1` as the compound, how does the cytotoxicity at 70.5 h read?
Answer: 30.9%

Question: For `CC(C)CC(=O)N[C@H](C)c1c(-c2ccc(Cl)cc2)noc1C(=O)O`, which cytotoxicity at 70.5 h is on record?
Answer: -7.33%

Question: For `Cc1nc(C)c(C(=O)NCCNC(=O)Cc2ccc(F)cc2)s1`, which cytotoxicity at 70.5 h is on record?
Answer: 10.7%

Question: For `Cc1ccsc1CN1CCC(n2cc(C(O)c3ccccc3)nn2)CC1` (centres undefined), which cytotoxicity at 70.5 h is on record?
Answer: -8.81%

Question: For `COc1ccc(-c2ncc(-c3nccn3CCN(C)C)cn2)cc1`, which cytotoxicity at 70.5 h is on record?
Answer: -10.5%

Question: Which cytotoxicity at 70.5 h does the source give for `Cc1cc(-c2ccc(=O)n(C3CCN(C(=O)C4CCC4)CC3)n2)c(C)o1` here?
Answer: 1.9%

Question: With `c1cc(CN2CCN(Cc3ccon3)C3(CCCCC3)C2)no1` as the compound, how does the cytotoxicity at 70.5 h read?
Answer: 4.47%

Question: For `COc1ccc(C(=O)NC2CC2)c(OC2CCN(CCCSC)CC2)c1`, which cytotoxicity at 70.5 h is on record?
Answer: -1.03%

Question: With `CC(C)C(C(=O)N(C)C)c1cccc(Cl)c1` (centres undefined) as the compound, how does the cytotoxicity at 70.5 h read?
Answer: -11%

Question: For `Cc1cccc2nc(C(=O)N3CCCC[C@]4(C)NC(=O)CC[C@H]34)cn12`, which cytotoxicity at 70.5 h is on record?
Answer: -0.96%

Question: Which cytotoxicity at 70.5 h does the source give for `CCN1CCC(NC(=O)CN2CCCCC2Cn2cc(C)cn2)CC1` (centres undefined) here?
Answer: 53.1%

Question: For `CCCc1nc(C)cc(N2Cc3cnn(CCO)c3C2)n1`, which cytotoxicity at 70.5 h is on record?
Answer: 0.818%

Question: Which cytotoxicity at 70.5 h does the source give for `COCc1cc(CC2(NC3CCN(C)CC3)COC2)no1` here?
Answer: 6.14%

Question: Which cytotoxicity at 70.5 h does the source give for `Cc1nn(-c2ccccc2)c(C)c1CNC(=O)NC1CC1` here?
Answer: -3.17%

Question: Which cytotoxicity at 70.5 h does the source give for `CCc1ccc(C(=O)NC2CCN(c3ccn(C)n3)C2)o1` (centres undefined) here?
Answer: -2.13%

Question: For `CCOCCCNC(=O)C(NC(=O)Cc1cccs1)c1ccc(C)cc1` (centres undefined), which cytotoxicity at 70.5 h is on record?
Answer: -2.89%

Question: Which cytotoxicity at 70.5 h does the source give for `CN(Cc1cnn(C)c1)C(=O)CN1CCCCC1Cn1cncn1` (centres undefined) here?
Answer: -7.41%

Question: Which cytotoxicity at 70.5 h does the source give for `O[C@@]1(CN2CCN(Cc3ccncc3)CC2)CCCN2CCCC[C@@H]21` here?
Answer: -9.72%

Question: Which cytotoxicity at 70.5 h does the source give for `CS(=O)(=O)N1CCOCC2(CN(Cc3ccc(F)cc3)CCO2)C1` (centres undefined) here?
Answer: -3.17%

Question: For `Cc1nn(C)c(C)c1CN(C)S(=O)(=O)c1c(C)n[nH]c1C`, which cytotoxicity at 70.5 h is on record?
Answer: -5.08%

Question: For `Cc1nonc1CN(C)Cc1nc(-c2ccccc2Cl)oc1C`, which cytotoxicity at 70.5 h is on record?
Answer: -7.91%

Question: With `CCOC(=O)CC(C)Nc1nc(C(C)(C)C)nc2c1cnn2C` (centres undefined) as the compound, how does the cytotoxicity at 70.5 h read?
Answer: 22.1%

Question: For `CC(C)c1noc(-c2ccc(-n3cnc(C(=O)O)c3)nc2)n1`, which cytotoxicity at 70.5 h is on record?
Answer: -15.8%

Question: For `CCCc1cc(C(=O)N(C)Cc2cccc3ncccc23)n(C)n1`, which cytotoxicity at 70.5 h is on record?
Answer: -14.7%
